According to ChEMBL document CHEMBL5543148, “Discovery of First-in-Class PROTAC Degraders of SARS-CoV-2 Main Protease” (J Med Chem, 2024):

Key:
SARS-CoV-2 [1] = assay: Antiviral activity against SARS-CoV-2 harboring recombinant live-attenuated delta3678 mGFP infected in human A549-ACE2 cells measured after 48 hrs by RT-PCR analysis; assay type: functional, organism-based; conditions: Severe acute respiratory syndrome coronavirus 2, A549-ACE2, 48 h
SARS-CoV-2 [2] = assay: Antiviral activity against SARS-CoV-2 harboring NSP5 E166A mutant infected in human A549-ACE2 cells measured after 48 hrs by RT-PCR analysis; assay type: functional, organism-based, Severe acute respiratory syndrome coronavirus 2

`C[C@@H](OC(C)(C)C)[C@H](NC(=O)OCc1cccc(OCCCCCCOc2cccc3c2C(=O)N(C2CCC(=O)NC2=O)C3=O)c1)C(=O)N[C@@H](CC1CCCCC1)C(=O)N[C@H](C=O)C[C@@H]1CCNC1=O` (some centres not stated) was tested. Which EC50 (SARS-CoV-2 [1]) did it give?
Its EC50 is 2200 nM.

What about the EC50 (SARS-CoV-2 [2]) of the same molecule?
Its EC50 is 460 nM.
